Measured values from the NIST ThermoML archive (doi:10.1016/j.jct.2016.09.028).

Assay: xn = mol fraction of the nth substance listed
Details: 100 kPa, Liquid; for speed of sound: Frequency=3 MHz, Sing-around technique in a fixed-path interferometer; for mass density: Vibrating tube method

Nc1ccccc1 [aniline] + CCn1cc[n+](C)c1.F[B-](F)(F)F
Details | mass density, 293.15 K [kg/m3] | mass density, 303.15 K [kg/m3] | mass density, 313.15 K [kg/m3] | mass density, 323.15 K [kg/m3] | speed of sound, 293.15 K [m/s] | speed of sound, 303.15 K [m/s] | speed of sound, 313.15 K [m/s] | speed of sound, 323.15 K [m/s]
x2 = 0 | 1021.69 | 1013.04 | 1004.36 | 995.66 | 1656.8 | 1618.3 | 1580 | 1541.9
x2 = 0.1008 | 1068.09 | 1059.52 | 1050.95 | 1042.39 | 1673.6 | 1634.2 | 1596.5 | 1561.8
x2 = 0.2035 | 1112.92 | 1104.8 | 1096.69 | 1088.57 | 1684.8 | 1650.6 | 1616.2 | 1583
x2 = 0.3059 | 1153.03 | 1144.58 | 1136.13 | 1127.68 | 1689.8 | 1657.2 | 1625.5 | 1593
x2 = 0.4053 | 1183.5 | 1175.21 | 1166.91 | 1158.62 | 1688.9 | 1658.9 | 1628.7 | 1596.8
x2 = 0.5073 | 1208.33 | 1200.1 | 1191.87 | 1183.64 | 1684.6 | 1654.5 | 1624.2 | 1593.2
x2 = 0.6013 | 1227.06 | 1219.01 | 1210.96 | 1202.91 | 1673.9 | 1646.2 | 1617.6 | 1589.3
x2 = 0.7046 | 1244.52 | 1236.64 | 1228.76 | 1220.88 | 1660.6 | 1634.7 | 1608.8 | 1582.3
x2 = 0.8067 | 1260.47 | 1252.74 | 1245.01 | 1237.28 | 1648.4 | 1623.8 | 1599.4 | 1575.4
x2 = 0.9059 | 1272.26 | 1264.62 | 1256.98 | 1249.34 | 1638.8 | 1614.2 | 1591.8 | 1568.9
